According to patent US20060069132A1, “Azolecarboxamide herbicides” (priority 2004, published 2006):

Key:
[1] = test system: yellow nutsedge; experiment: Test C pre-/postemergence herbicide test; assay type: in vivo, Cyperus esculentus; settings: for Nutsedge, Yellow plant response rating: 500 g ai/ha
Procedure, shortened: (§1)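 Visual ratings on a 0–100 scale (100 = complete control) made versus untreated controls after 12 to 14 greenhouse days. Test chemicals, formulated in surfactant-containing non-phytotoxic solvent, applied preemergence to planted seeds or postemergence to 1- to 4-leaf plants (2 to 18 cm).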

[2] = test system: pigweed; experiment: Test C pre-/postemergence herbicide test; assay type: in vivo, Amaranthus retroflexus; settings: for Pigweed plant response rating: 500 g ai/ha
Procedure, shortened: as §1

[3] = test system: barnyardgrass; experiment: Test C flooded paddy test; assay type: in vivo, Echinochloa crus-galli
Procedure, shortened: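 Weeds and wheat were sprayed after emergence, at a height of 2 to 18 cm (1–4 leaves), and paddy barnyardgrass was flooded and treated at two leaves. Assessment took place 12–14 days later in the greenhouse on a 0-to-100 visual control scale. A dash means no result was obtained.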

[4] = test system: kochia; experiment: Test C pre-/postemergence herbicide test; assay type: in vivo, Kochia scoparia; settings: for Kochia plant response rating: 500 g ai/ha
Procedure, shortened: as §1

[5] = test system: corn; experiment: Test C pre-/postemergence herbicide test; assay type: in vivo, Zea mays; settings: for Corn plant response rating: 500 g ai/ha
Procedure, shortened: as §1

[6] = test system: velvetleaf; experiment: Test A pre-/postemergence herbicide test; assay type: in vivo, Abutilon theophrasti
Procedure, shortened: (§2)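 Visual injury scores on a 0–100 scale (100 = complete control) taken about ten days post-treatment in greenhouse against untreated controls; dash means no result. Treatments: preemergence soil spray and postemergence spray to runoff on one- to two-leaf plants 2 to 10 cm tall, surfactant-containing formulation.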

[7] = test system: goosegrass; experiment: Test C pre-/postemergence herbicide test; assay type: in vivo, Eleusine indica; settings: for Goosegrass plant response rating: 500 g ai/ha
Procedure, shortened: as §1

[8] = test system: smallflower umbrella sedge; experiment: Test C flooded paddy test; assay type: in vivo, Cyperus difformis
[9] = test system: lambsquarters; experiment: Test C pre-/postemergence herbicide test; assay type: in vivo, Chenopodium album; settings: for Lambsquarters plant response rating: 500 g ai/ha
Procedure, shortened: as §1

[10] = test system: soybean; experiment: Test C pre-/postemergence herbicide test; assay type: in vivo, Glycine max; settings: for Soybean plant response rating: 500 g ai/ha
Procedure, shortened: as §1

[11] = test system: woolly cupgrass; experiment: Test C pre-/postemergence herbicide test; assay type: in vivo, Eriochloa villosa; settings: for Cupgrass, Woolly plant response rating: 500 g ai/ha
Procedure, shortened: as §1

[12] = test system: giant foxtail; experiment: Test A pre-/postemergence herbicide test; assay type: in vivo, Setaria faberi
Procedure, shortened: as §2

[13] = test system: morningglory; experiment: Test C pre-/postemergence herbicide test; assay type: in vivo, Ipomoea coccinea; set-up: key to Plant response rating, Morningglory: 0 = no effect, 100 = complete control; settings: for Morningglory plant response rating: 500 g ai/ha
Procedure, shortened: as §1

[14] = test system: Surinam grass; experiment: Test C pre-/postemergence herbicide test; assay type: in vivo, Urochloa decumbens; settings: for Surinam Grass plant response rating: 500 g ai/ha
Procedure, shortened: as §1

[15] = 125 g ai/ha, scale 0 (no effect) to 100 (complete control), visual, 12 to 14 days, preemergence
[16] = Postemergence, 250 g ai/ha, scale 0 to 100, 0 no effect, 100 complete control
[17] = Preemergence, scale 0 to 100, 0 no effect, 100 complete control
[18] = postemergence, 125 g ai/ha, scale 0 to 100
[19] = postemergence, 62 g ai/ha, scale 0 to 100
[20] = 62 g ai/ha, scale 0 to 100 (0 no effect, 100 complete control)
[21] = 125 g ai/ha, scale of 0 to 100, 0 is no effect, 100 is complete control
[22] = 250 g ai/ha, scale of 0 to 100, 0 is no effect, 100 is complete control
[23] = 500 g ai/ha, visual rating after 12 to 14 days, scale 0 to 100 (0 no effect, 100 complete control)
[24] = 250 g ai/ha, scale 0 to 100 (0 no effect, 100 complete control), visual, 12 to 14 days, preemergence
[25] = Postemergence, 500 g ai/ha, 0 to 100 scale, 0 no effect, 100 complete control
[26] = Postemergence, 2000 g ai/ha, 0 to 100 scale, 0 no effect, 100 complete control
[27] = Preemergence, 500 g ai/ha, visual rating, 0 to 100 scale (0 no effect, 100 complete control)
[28] = Preemergence, 2000 g ai/ha, visual rating, 0 to 100 scale (0 no effect, 100 complete control)

Structure (SMILES): CC(=NO)c1cccc(NC(=O)c2cc(C(C)(C)C)nn2CCF)c1 [Compound 115]
- Plant response rating (0 = no effect, 100 = complete control), Nutsedge, Yellow ([1]; 62 g ai/ha, preemergence): 0
- Plant response rating, Nutsedge, Yellow [1, 15]: 0
- Nutsedge, Yellow plant response rating ([1]; Postemergence, scale 0 to 100): 30
- Plant response rating, Nutsedge, Yellow [1, 16]: 30
- Nutsedge, Yellow plant response rating [1, 17]: 20
- Plant response rating, Nutsedge, Yellow [1, 18]: 10
- Plant response rating, Nutsedge, Yellow [1, 19]: 0
- Plant response rating (0 = no effect, 100 = complete control), Pigweed ([2]; 62 g ai/ha, preemergence): 100
- Plant response rating, Pigweed [2, 15]: 100
- Pigweed plant response rating ([2]; Postemergence, scale 0 to 100): 100
- Plant response rating, Pigweed [2, 16]: 100
- Pigweed plant response rating [2, 17]: 100
- Plant response rating, Pigweed [2, 18]: 100
- Plant response rating, Pigweed [2, 19]: 100
- Barnyardgrass plant response rating [3, 20]: 30
- Barnyardgrass plant response rating [3, 21]: 45
- Barnyardgrass plant response rating [3, 22]: 65
- Plant response rating, Barnyardgrass [3, 23]: 75
- Plant response rating (0 = no effect, 100 = complete control), Kochia ([4]; 62 g ai/ha, preemergence): 100
- Plant response rating, Kochia [4, 15]: 100
- Kochia plant response rating ([4]; Postemergence, scale 0 to 100): 90
- Plant response rating, Kochia [4, 16]: 90
- Kochia plant response rating [4, 17]: 100
- Plant response rating, Kochia [4, 18]: 90
- Plant response rating, Kochia [4, 19]: 80
- Plant response rating (0 = no effect, 100 = complete control), Corn ([5]; 62 g ai/ha, preemergence): 10
- Plant response rating, Corn [5, 15]: 10
- Plant response rating, Corn [5, 24]: 20
- Corn plant response rating ([5]; Postemergence, scale 0 to 100): 40
- Corn plant response rating [5, 17]: 30
- Plant response rating, Corn [5, 18]: 40
- Plant response rating, Corn [5, 19]: 40
- Velvetleaf plant response rating [6, 25]: 40
- Plant response rating, Velvetleaf [6, 26]: 40
- Velvetleaf plant response rating [6, 27]: 85
- Velvetleaf plant response rating [6, 28]: 95
- Plant response rating (0 = no effect, 100 = complete control), Goosegrass ([7]; 62 g ai/ha, preemergence): 70
- Plant response rating, Goosegrass [7, 15]: 80
- Goosegrass plant response rating ([7]; Postemergence, scale 0 to 100): 70
- Plant response rating, Goosegrass [7, 16]: 70
- Goosegrass plant response rating [7, 17]: 100
- Plant response rating, Goosegrass [7, 18]: 60
- Plant response rating, Goosegrass [7, 19]: 40
- Sedge, Umbrella plant response rating [8, 20]: 80
- Sedge, Umbrella plant response rating [8, 21]: 85
- Sedge, Umbrella plant response rating [8, 22]: 90
- Plant response rating, Sedge, Umbrella [8, 23]: 95
- Plant response rating (0 = no effect, 100 = complete control), Lambsquarters ([9]; 62 g ai/ha, preemergence): 100
- Plant response rating, Lambsquarters [9, 15]: 100
- Lambsquarters plant response rating ([9]; Postemergence, scale 0 to 100): 100
- Plant response rating, Lambsquarters [9, 16]: 100
- Lambsquarters plant response rating [9, 17]: 100
- Plant response rating, Lambsquarters [9, 18]: 100
- Plant response rating, Lambsquarters [9, 19]: 100
- Plant response rating (0 = no effect, 100 = complete control), Soybean ([10]; 62 g ai/ha, preemergence): 0
- Plant response rating, Soybean [10, 15]: 0
- Soybean plant response rating ([10]; Postemergence, scale 0 to 100): 90
- Plant response rating, Soybean [10, 16]: 80
- Soybean plant response rating [10, 17]: 0
- Plant response rating, Soybean [10, 18]: 70
- Plant response rating, Soybean [10, 19]: 60
- Plant response rating (0 = no effect, 100 = complete control), Cupgrass, Woolly ([11]; 62 g ai/ha, preemergence): 20
- Plant response rating, Cupgrass, Woolly [11, 15]: 30
- Plant response rating, Cupgrass, Woolly [11, 24]: 80
- Cupgrass, Woolly plant response rating ([11]; Postemergence, scale 0 to 100): 70
- Plant response rating, Cupgrass, Woolly [11, 16]: 70
- Cupgrass, Woolly plant response rating [11, 17]: 90
- Plant response rating, Cupgrass, Woolly [11, 18]: 70
- Plant response rating, Cupgrass, Woolly [11, 19]: 50
- Foxtail, Giant plant response rating [12, 25]: 60
- Plant response rating, Foxtail, Giant [12, 26]: 80
- Foxtail, Giant plant response rating [12, 27]: 50
- Foxtail, Giant plant response rating [12, 28]: 80
- Plant response rating, Morningglory [13, 15]: 30
- Morningglory plant response rating ([13]; Postemergence, scale 0 to 100): 100
- Morningglory plant response rating [13, 17]: 80
- Plant response rating, Morningglory [13, 18]: 80
- Plant response rating, Morningglory [13, 19]: 50
- Plant response rating (0 = no effect, 100 = complete control), Surinam Grass ([14]; 62 g ai/ha, preemergence): 20
- Plant response rating, Surinam Grass [14, 15]: 40
- Surinam Grass plant response rating ([14]; Postemergence, scale 0 to 100): 60
- Plant response rating, Surinam Grass [14, 16]: 60
- Surinam Grass plant response rating [14, 17]: 90
- Plant response rating, Surinam Grass [14, 18]: 40
- Plant response rating, Surinam Grass [14, 19]: 30
